In ChEMBL document CHEMBL4725259 (Bioorg Med Chem, 2020):
The source made the active and inactive calls. The rule behind the calls is not given here.

Tests used:
Vasopressin V2 receptor [1] = molecular target: T1, Vasopressin V2 receptor (Homo sapiens, UniProt P30518); test: Antagonist activity at human AVPR2 at 20 uM by PathHunter beta-arrestin assay relative to control; conditions: filed as antagonist
[2] = molecular target: T2, C-C chemokine receptor type 3 (Homo sapiens) (UniProt P51677); test: Antagonist activity at human CCR3 expressed in CHO-K1 cells at 20 uM by PathHunter beta-arrestin assay relative to control; format: cell-based; conditions: filed as antagonist
T2 sequence (whole entry): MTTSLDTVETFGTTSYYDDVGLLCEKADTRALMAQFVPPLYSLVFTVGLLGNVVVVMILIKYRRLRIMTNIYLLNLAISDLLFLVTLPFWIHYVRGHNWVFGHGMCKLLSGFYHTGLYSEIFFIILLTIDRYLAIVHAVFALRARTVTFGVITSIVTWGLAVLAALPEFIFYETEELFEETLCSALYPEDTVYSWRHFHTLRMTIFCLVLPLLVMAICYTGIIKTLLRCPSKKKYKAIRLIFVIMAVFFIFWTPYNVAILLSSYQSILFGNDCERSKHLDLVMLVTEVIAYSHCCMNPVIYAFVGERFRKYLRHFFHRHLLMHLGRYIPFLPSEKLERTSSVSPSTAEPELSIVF

[3] = molecular target: T3, C-C chemokine receptor type 8 (Homo sapiens, UniProt P51685); test: Antagonist activity at human CCR8 expressed in CHO-K1 cells at 20 uM by PathHunter beta-arrestin assay relative to control; format: cell-based; conditions: filed as antagonist
T3 sequence (P51685 whole entry): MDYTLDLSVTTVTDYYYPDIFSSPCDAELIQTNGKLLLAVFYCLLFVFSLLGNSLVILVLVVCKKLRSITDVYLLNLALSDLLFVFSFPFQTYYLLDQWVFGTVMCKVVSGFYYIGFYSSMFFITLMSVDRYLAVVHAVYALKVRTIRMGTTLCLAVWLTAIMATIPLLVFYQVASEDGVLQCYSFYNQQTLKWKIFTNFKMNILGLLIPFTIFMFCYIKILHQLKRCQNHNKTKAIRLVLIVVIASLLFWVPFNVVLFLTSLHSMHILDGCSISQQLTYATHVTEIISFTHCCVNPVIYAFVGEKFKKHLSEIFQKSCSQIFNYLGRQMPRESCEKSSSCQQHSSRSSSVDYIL

[4] = molecular target: T4, CX3C chemokine receptor 1 (Homo sapiens) (UniProt P49238); test: Antagonist activity at human CX3CR1 expressed in CHO-K1 cells at 20 uM by PathHunter beta-arrestin assay relative to control; format: cell-based; conditions: filed as antagonist
T4 sequence (whole entry): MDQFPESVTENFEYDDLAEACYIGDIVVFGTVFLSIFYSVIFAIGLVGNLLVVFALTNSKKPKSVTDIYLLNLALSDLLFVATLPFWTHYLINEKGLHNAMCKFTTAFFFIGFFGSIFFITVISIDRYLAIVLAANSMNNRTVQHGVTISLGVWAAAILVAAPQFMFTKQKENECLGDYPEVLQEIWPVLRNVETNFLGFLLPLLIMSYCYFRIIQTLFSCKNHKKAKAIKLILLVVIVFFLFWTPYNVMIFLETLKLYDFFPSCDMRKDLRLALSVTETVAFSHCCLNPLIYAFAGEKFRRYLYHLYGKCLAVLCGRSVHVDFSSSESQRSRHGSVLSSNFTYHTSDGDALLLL

[5] = molecular target: T5, C-X-C chemokine receptor type 4 (Homo sapiens, UniProt P61073); test: Antagonist activity at human CXCR4 expressed in mouse C2C12 cells at 20 uM by PathHunter beta-arrestin assay relative to control; format: cell-based; conditions: filed as antagonist
T5 sequence (P61073 whole entry): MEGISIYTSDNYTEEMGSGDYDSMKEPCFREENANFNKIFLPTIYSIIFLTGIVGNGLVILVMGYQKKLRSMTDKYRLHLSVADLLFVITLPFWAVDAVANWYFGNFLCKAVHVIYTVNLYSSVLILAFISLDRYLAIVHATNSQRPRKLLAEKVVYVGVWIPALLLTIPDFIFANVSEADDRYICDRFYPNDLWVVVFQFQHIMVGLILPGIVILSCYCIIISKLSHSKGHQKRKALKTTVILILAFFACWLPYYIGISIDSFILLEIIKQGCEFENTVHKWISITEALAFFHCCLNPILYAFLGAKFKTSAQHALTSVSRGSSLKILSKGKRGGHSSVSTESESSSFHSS

[6] = molecular target: T6, Follicle-stimulating hormone receptor (Homo sapiens) (UniProt P23945); test: Antagonist activity at human FSHR expressed in CHO-K1 cells at 20 uM by PathHunter beta-arrestin assay relative to control; format: cell-based; conditions: filed as antagonist
T6 sequence (whole entry): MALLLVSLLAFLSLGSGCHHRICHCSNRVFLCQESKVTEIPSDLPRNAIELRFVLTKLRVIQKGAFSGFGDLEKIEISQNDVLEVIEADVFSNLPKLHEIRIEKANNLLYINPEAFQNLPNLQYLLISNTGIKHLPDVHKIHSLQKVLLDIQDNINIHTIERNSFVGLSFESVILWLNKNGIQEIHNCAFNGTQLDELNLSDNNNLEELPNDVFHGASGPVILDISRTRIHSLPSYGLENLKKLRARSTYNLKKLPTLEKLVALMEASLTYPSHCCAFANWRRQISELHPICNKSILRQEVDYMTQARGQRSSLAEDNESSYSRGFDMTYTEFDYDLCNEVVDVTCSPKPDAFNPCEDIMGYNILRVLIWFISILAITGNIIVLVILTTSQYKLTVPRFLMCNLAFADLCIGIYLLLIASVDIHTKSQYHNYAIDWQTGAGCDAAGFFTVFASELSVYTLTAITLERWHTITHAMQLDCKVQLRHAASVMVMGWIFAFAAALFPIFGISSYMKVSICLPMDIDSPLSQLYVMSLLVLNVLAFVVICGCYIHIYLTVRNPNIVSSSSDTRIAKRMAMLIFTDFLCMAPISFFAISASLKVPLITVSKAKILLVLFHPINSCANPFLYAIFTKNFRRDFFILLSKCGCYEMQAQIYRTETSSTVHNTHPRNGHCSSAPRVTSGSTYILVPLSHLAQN

U2OS [7] = test: Antagonist activity at NPSR1B in human U2OS cells at 20 uM by PathHunter beta-arrestin assay relative to control; format: cell-based; conditions: filed as antagonist
[8] = molecular target: T7, Oxytocin receptor (Homo sapiens) (UniProt P30559); test: Antagonist activity at human OXTR expressed in CHO-K1 cells at 20 uM by PathHunter beta-arrestin assay relative to control; format: cell-based; conditions: filed as antagonist
T7 sequence (whole entry): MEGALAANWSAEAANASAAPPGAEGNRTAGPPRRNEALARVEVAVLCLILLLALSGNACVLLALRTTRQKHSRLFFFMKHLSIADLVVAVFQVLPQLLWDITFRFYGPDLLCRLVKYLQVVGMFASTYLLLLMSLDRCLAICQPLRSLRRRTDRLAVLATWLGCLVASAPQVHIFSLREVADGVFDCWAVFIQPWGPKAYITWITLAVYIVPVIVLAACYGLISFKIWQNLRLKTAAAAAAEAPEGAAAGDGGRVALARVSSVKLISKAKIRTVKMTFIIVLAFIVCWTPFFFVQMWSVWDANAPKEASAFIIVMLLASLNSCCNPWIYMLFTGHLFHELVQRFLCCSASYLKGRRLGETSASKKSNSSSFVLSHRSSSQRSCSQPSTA

Vasopressin V2 receptor [9] = molecular target: T1, Vasopressin V2 receptor; test: Agonist activity at human AVPR2 at 20 uM by PathHunter beta-arrestin assay relative to control
[10] = molecular target: T2, C-C chemokine receptor type 3 (Homo sapiens); test: Agonist activity at human CCR3 expressed in CHO-K1 cells at 20 uM by PathHunter beta-arrestin assay relative to control; format: cell-based
[11] = molecular target: T3, C-C chemokine receptor type 8; test: Agonist activity at human CCR8 expressed in CHO-K1 cells at 20 uM by PathHunter beta-arrestin assay relative to control; format: cell-based
[12] = molecular target: T4, CX3C chemokine receptor 1 (Homo sapiens); test: Agonist activity at human CX3CR1 expressed in CHO-K1 cells at 20 uM by PathHunter beta-arrestin assay relative to control; format: cell-based
[13] = molecular target: T5, C-X-C chemokine receptor type 4; test: Agonist activity at human CXCR4 expressed in mouse C2C12 cells at 20 uM by PathHunter beta-arrestin assay relative to control; format: cell-based
[14] = molecular target: D(2) dopamine receptor (Homo sapiens) (UniProt P14416); test: Agonist activity at human DRD2L expressed in CHO-K1 cells at 20 uM by PathHunter beta-arrestin assay relative to control; format: cell-based
D(2) dopamine receptor (Homo sapiens), sequence (P14416 whole entry): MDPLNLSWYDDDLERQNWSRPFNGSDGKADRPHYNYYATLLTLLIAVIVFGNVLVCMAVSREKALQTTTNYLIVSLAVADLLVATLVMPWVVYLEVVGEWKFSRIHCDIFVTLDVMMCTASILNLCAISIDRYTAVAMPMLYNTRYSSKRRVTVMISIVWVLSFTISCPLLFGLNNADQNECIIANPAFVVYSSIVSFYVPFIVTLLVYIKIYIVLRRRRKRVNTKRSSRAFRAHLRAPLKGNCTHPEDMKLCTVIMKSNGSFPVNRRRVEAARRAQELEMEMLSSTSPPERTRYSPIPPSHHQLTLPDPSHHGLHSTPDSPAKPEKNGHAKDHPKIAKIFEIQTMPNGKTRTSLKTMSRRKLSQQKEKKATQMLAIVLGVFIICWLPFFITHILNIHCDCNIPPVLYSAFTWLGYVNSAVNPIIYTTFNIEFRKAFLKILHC

[15] = molecular target: T6, Follicle-stimulating hormone receptor (Homo sapiens); test: Agonist activity at human FSHR expressed in CHO-K1 cells at 20 uM by PathHunter beta-arrestin assay relative to control; format: cell-based
U2OS [16] = test: Agonist activity at NPSR1B in human U2OS cells at 20 uM by PathHunter beta-arrestin assay relative to control; format: cell-based
[17] = molecular target: T7, Oxytocin receptor (Homo sapiens); test: Agonist activity at human OXTR expressed in CHO-K1 cells at 20 uM by PathHunter beta-arrestin assay relative to control; format: cell-based

T1 sequence (P30518 whole entry): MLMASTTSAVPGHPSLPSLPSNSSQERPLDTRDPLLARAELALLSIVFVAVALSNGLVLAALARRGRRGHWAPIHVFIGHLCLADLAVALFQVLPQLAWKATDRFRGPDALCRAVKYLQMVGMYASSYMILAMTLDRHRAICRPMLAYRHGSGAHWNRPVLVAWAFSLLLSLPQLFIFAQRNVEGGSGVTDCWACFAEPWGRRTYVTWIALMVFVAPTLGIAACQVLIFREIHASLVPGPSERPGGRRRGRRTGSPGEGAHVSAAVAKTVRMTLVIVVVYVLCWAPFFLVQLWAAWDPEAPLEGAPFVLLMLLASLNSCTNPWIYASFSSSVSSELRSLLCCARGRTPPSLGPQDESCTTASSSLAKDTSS

inhibition (Vasopressin V2 receptor [1]) | inhibition [2] | inhibition [3] | inhibition [4] | inhibition [5] | inhibition [6] | inhibition [8] | Activity (Vasopressin V2 receptor [9]) | Activity [10] | Activity [11] | Activity [12] | Activity [13] | Activity [14] | Activity [15] | Activity [17] | SMILES | inhibition (U2OS [7]) | Activity (U2OS [16])
83% | 89% | 88% | 72% | 39% | 56% | 97% | inactive | inactive | inactive | inactive | inactive | inactive | inactive | inactive | COC(=O)[C@@H]1[C@H]2C[C@@H]3N(CC[C@@]34C(=O)N(Cc3cccc(OC)c3)c3ccccc34)C[C@@H]2CC[C@@H]1OCc1cccc(OC)c1 | 48% | inactive
7% | 112% | 90% | 92% | 125% | 51% | 9% | inactive | inactive | inactive | inactive | inactive | inactive | inactive | inactive | COC(=O)[C@@H]1[C@H]2C[C@@H](c3[nH]c4ccccc4c3CCn3cc(-c4cccc(Cl)c4)nn3)N(C#N)C[C@@H]2CC[C@@H]1O | 62% | inactive
